Publication PMC8532876, “Can Immobilized Artificial Membrane Chromatography Support the Characterization of Antimicrobial Peptide Origin Derivatives?” (Antibiotics, 2021)
Ends that are not written are not given here.

Experiment: IAM-HPLC, chromatographic hydrophobicity index on an immobilized artificial membrane column
Format: physicochemical
Settings: IAM.PC.DD2 column, gradient 0–85% acetonitrile in 10-mM phosphoric buffer pH 7.4, 30.0 °C; calculated from retention time with calibration curve
Experimental: All HPLC experiments were carried out using a Prominence-1 LC-2030C 3D HPLC system (Shimadzu, Tokyo, Japan) equipped with an IAM.PC.DD2 column (10 mm × 4.6 mm; particle size 10.0 µm with an IAM guard column; Regis Technologies, Austin Ave, Morton Grove, IL, USA) and diode array detection (DAD). The HPLC system was controlled by LabSolution software (version 5.90, Shimadzu, Japan). The stock solutions of the solutes were diluted to obtain 100-µg/mL concentrations, and the injected volume was 10 µL, which was used for the analytes. The IAM-HPLC analyses were performed with a linear gradient of 0–85% in phase B (where phase A was 10-mM phosphoric buffer at pH 7.4, and phase B was acetonitrile) at a flow rate of 1.5 mL/min. The ultrapure water used for the mobile phase preparation was purified by the Millipore Direct-Q 3 UVWater Purification System (Millipore Corporation, Bedford, MA, USA). The other reagents used for the preparation of the mobile phase: acetonitrile, sodium phosphate dibasic dehydrate, and sodium phosphate monobasic monohydrate (Sigma-Aldrich, Steinheim, Germany) were analytical grade. During the chromatographic analysis, the temperature of the column was constant at 30.0 °C, and the analysis time was 6.5 min. The CHIAM indices of the target solutes were obtained using a calibration set of the reference substances using the protocol developed by Valko and coworkers. The reference substances were purchased, respectively: octanonophenone and butyrophenone acetanilide (Alfa Aesar, Haverhill, MA, USA); acetaminophen, acetophenone, levofloxacin, and ciprofloxacin (Sigma-Aldrich, Steinheim, Germany); and heptanophenone, hexanophenone, valerophenone, propiophenone, and acetophenone (Acros Organic, Pittsburg, PA, USA). Figure 2 presents a correlations plot of the CHIIAM indices of the model substances and experimentally determined retention times.
`O=C(O)c1cn(C2CC2)c2cc(N3CCNCC3)c(F)cc2c1=O` [Ciprofloxacin] gave a CHIIAM of 19.70.
For “DVIKKVASVIGGL-NH2 [(4–16) Citropin, analog of citropin 1.1]”, the CHIIAM was 38.24.
“KVASVIGGL-NH2 [(8–16) Citropin, analog of citropin 1.1]” showed a CHIIAM of 45.95.
For “GLFDVIKASVIGGL-NH2 [(1–7)–(10–16) Citropin, analog of citropin 1.1]”, the CHIIAM was 37.09.
Molecule `C[C@H]1COc2c(N3CCN(C)CC3)c(F)cc3c(=O)c(C(=O)O)cn1c23` [Levofloxacin] has a CHIIAM of 24.88.
With “DVIKKVASVIG-NH2 [(4–14) Citropin, analog of citropin 1.1]” the CHIIAM was 27.85.
“GLFDVVIGGL-NH2 [(1–5)–(12–16) Citropin, analog of citropin 1.1]” showed a CHIIAM of 28.66.
“GLFDVIK-NH2 [(1–7) Citropin, analog of citropin 1.1]” showed a CHIIAM of 42.15.

Experiment: not given
Design: method as in PMID 10906732, PMID 27084527
Settings: model substances of the IAM-HPLC calibration curve, protocol of Valko and coworkers ref 13, 14; cited from earlier work
For `CCCCCC(=O)c1ccccc1` [hexanophenone], the “CHIIAM of calibration set reference substances” value is listed as 41.80.
In the case of `CCC(=O)c1ccccc1` [propiohenone], the “CHIIAM of calibration set reference substances” value is listed as 25.90.
In the case of `CCCCCCCC(=O)c1ccccc1` [octanophenone], the “CHIIAM of calibration set reference substances” value is listed as 49.4.
In the case of `CCCCC(=O)c1ccccc1` [valerophenone], the “CHIIAM of calibration set reference substances” value is given as 37.30.
For `CCCC(=O)c1ccccc1` [butyrophenone], the “CHIIAM of calibration set reference substances” value is listed as 32.00.
In the case of `CCCCCCC(=O)c1ccccc1` [heptanophenone], the “CHIIAM of calibration set reference substances” value is listed as 45.70.
In the case of `CC(=O)c1ccccc1` [acetable], the “CHIIAM of calibration set reference substances” value is given as 17.20.
In the case of `CC(=O)Nc1ccc(O)cc1` [acetaminophen], the “CHIIAM of calibration set reference substances” value is listed as 2.90.
In the case of `CC(=O)Nc1ccccc1` [acetanilidine], the “CHIIAM of calibration set reference substances” value is given as 11.50.
